Source: patent publication US12357623B2, “Method for treating a disease or condition using a pyrazole compound or formulation thereof” (Rigel Pharmaceuticals, Inc., priority 2021, dated 2025)
Each block holds one molecule with its values, some of them ahead of it.

Columns and labels:
[1] = Pharmacokinetics in cynomolgus monkeys (co-crystal and spray-dried dispersion capsules); assay type: in vivo; settings: male cynomolgus monkeys (n=3/group), capsule equivalent to 25 mg compound I-1
Description: Two groups of male cynomolgus monkeys (n=3/group) were administered test articles in a 3-way crossover design as indicated in Table 2. The washout period between doses was 3-4 days. Test article capsules were prepared such that each capsule contained an equivalent of 25 mg of free base compound I-1. The organic stock solution of compound I-1 was prepared at a concentration of 5 mg/ml using TPGS/PEG400/PG, and was diluted with apple juice within 1 hour of dosing (PO) at 1 part stock solution to 3 parts apple juice.
FIGS. 11-14 provide graphs of the plasma concentrations obtained from administering the co-crystal formulations of compound I-1 to monkeys. And Table 3 provides pharmacokinetic (PK) data for the co-crystal formulations, including the average area under the curve (AUC) and percent bioavailability.
FIG. 19 provides PK data for one embodiment of the disclosed spray-dried formulation, and the organic/juice formulation.

[2] = Hygroscopicity evaluation (DVS) of salts of compound I-18; assay type: physicochemical; settings: 25° C., listed as K salt
Description: To investigate the solid form stability as a function of humidity, DVS isotherm plot of the K salt, Arginine salt, Choline salt and Tris salt were collected at 25° C. between 0 and 95% RH.

[3] = Physical and chemical stability of salts of compound I-18; assay type: physicochemical; settings: for Area (%) of peak at RRT 1.00: main peak; for Area (%) of peak at RRT 1.00 / Area (%) of peak at RRT 1.17: listed as potassium salt; for Area (%) of peak at RRT 1.17: peak corresponds to I-1 formed by hydrolysis
Description: The physical and chemical stability of the K salt, Arginine salt, Choline salt and Tris salt were evaluated under conditions of 25° C./60% RH and 40° C./75% RH for 1 week. Each sample was added into 3 mL glass vials, sealed by parafilm with several holes, and kept under tested condition. After one week, samples was taken for XRPD and HPLC purity test.

- percent bioavailability (% F) of compound I-1 [1]: 7.9%
SMILES: CCO[C@H]1CC[C@H](n2cc(NC(=O)c3csc(-c4cn[nH]c4)n3)c(-c3nc(F)ccc3F)n2)CC1.O=P(O)(O)O [Compound I-104, N-(3-(3,6-difluoropyridin-2-yl)-1-((1r, 4r)-4-ethoxycyclohexyl)-1H-pyrazol-4-yl)-2-(1H-pyrazol-4-yl)thiazole-4-carboxamide phosphate]

SMILES: CCO[C@H]1CC[C@H](n2cc(NC(=O)c3csc(-c4cnn(C(C)OP(=O)(O)O)c4)n3)c(-c3nc(F)ccc3F)n2)CC1 (some centres unmarked) [Compound I-108, potassium 1-(4-(4-((3-(3,6-difluoropyridin-2-yl)-1-((1r, 4r)-4-ethoxycyclohexyl)-1H-pyrazol-4-yl)carbamoyl)thiazol-2-yl)-1H-pyrazol-1-yl)ethyl hydrogen phosphate]
- water uptake (DVS) ([2]; at 70% RH): 0.42%
- water uptake (DVS) ([2]; at 95% RH): 16.5%
- Area (%) of peak at RRT 1.14 ([3]; 25° C./60% RH, 1 week): <0.04%
- Area (%) of peak at RRT 1.40 ([3]; 25° C./60% RH, 1 week): 0.25%
- Area (%) of peak at RRT 1.44 ([3]; 25° C./60% RH, 1 week): 0.30%
- Area (%) of peak at RRT 1.70 ([3]; 25° C./60% RH, 1 week): 0.27%
- Area (%) of peak at RRT 1.72 ([3]; 25° C./60% RH, 1 week): 0.78%
- Area (%) of peak at RRT 1.81 ([3]; 25° C./60% RH, 1 week): <0.04%
- HPLC purity change ([3]; 25° C./60% RH, 1 week, listed as K salt): slight purity decrease
- Area (%) of peak at RRT 1.00 ([3]; 25° C./60% RH, 1 week): 96.26%
- Area (%) of peak at RRT 1.17 ([3]; 25° C./60% RH, 1 week): 2.14%
- Form change (XRPD) ([3]; 25° C./60% RH/1 week, listed as K salt): no form change and No
- Area (%) of peak at RRT 1.14 ([3]; 40° C./75% RH, 1 week): 0.05%
- Area (%) of peak at RRT 1.40 ([3]; 40° C./75% RH, 1 week): 0.39%
- Area (%) of peak at RRT 1.44 ([3]; 40° C./75% RH, 1 week): 0.24%
- Area (%) of peak at RRT 1.70 ([3]; 40° C./75% RH, 1 week): 0.24%
- Area (%) of peak at RRT 1.72 ([3]; 40° C./75% RH, 1 week): 0.83%
- Area (%) of peak at RRT 1.81 ([3]; 40° C./75% RH, 1 week): 0.04%
- HPLC purity change ([3]; 40° C./75% RH, 1 week, listed as K salt): slight purity decrease
- Area (%) of peak at RRT 1.00 ([3]; 40° C./75% RH, 1 week): 96.40%
- Area (%) of peak at RRT 1.17 ([3]; 40° C./75% RH, 1 week): 1.80%
- Form change (XRPD) ([3]; 40° C./75% RH/1 week, listed as K salt): a form change was observed and Yes
- Area (%) of peak at RRT 1.14 ([3]; Initial): <0.04%
- Area (%) of peak at RRT 1.40 ([3]; Initial): 0.23%
- Area (%) of peak at RRT 1.44 ([3]; Initial): 0.21%
- Area (%) of peak at RRT 1.70 ([3]; Initial): 0.18%
- Area (%) of peak at RRT 1.72 ([3]; Initial): 0.77%
- Area (%) of peak at RRT 1.81 ([3]; Initial): <0.04%
- Area (%) of peak at RRT 1.00 ([3]; Initial): 97.27%
- Area (%) of peak at RRT 1.17 ([3]; Initial): 1.33%
- Initial purity ([3]; initial, before storage, listed as K salt): 97.27 area %
